The subject of assay [1] is RIF-1. In words: Photosensitizing efficacy in RIF cells at 0.6-2.5 uM and light dose of 0-10 J/cm2 by MTT assay. It is filed as functional, cell-based. To be noted: Mus musculus.
Assay [2] concerns Mus musculus. Put plainly: In vivo photosensitizing efficacy in RIF cells of C3H mouse at 1 umol/kg 90 days post-dose. It is filed as functional.

On to `CC[C@H]1c2cc3nc4c(c5[nH]c(cc6[nH]c(cc(n2)[C@@H]1C)c(C(C)NCc1cc(C(F)(F)F)cc(C(F)(F)F)c1)c6C)[C@@H](C)[C@@H]5CCC(=O)OC)C(=O)N(Cc1cc(C(F)(F)F)cc(C(F)(F)F)c1)C(=O)C4=C3C` (some centres not stated), for which the Activity entry was “Dose-dependent effect” in assay [1] and 60% in assay [2].

Source of the values: ChEMBL document CHEMBL1138160, “In vivo stability and photodynamic efficacy of fluorinated bacteriopurpurinimides derived from bacteriochlorophyll-a” (2006).
